pIC50, pKi: −log10 of the molar value.

The target of experiment [1] is T1, 3',5'-cyclic-AMP phosphodiesterase 4A (Homo sapiens, UniProt P27815). As to the kind of experiment: Inhibition of PDE4A with respect to increase in cAMP concentration.
Experiment [2] concerns the target T1, 3',5'-cyclic-AMP phosphodiesterase 4A. The experiment is described as follows: Inhibition of PDE4A.
Experiment [3] has as its target 3',5'-cyclic-AMP phosphodiesterase 4B (Homo sapiens, UniProt Q07343). The experiment is described as follows: Inhibition of PDE4B.
Experiment [4] addresses 3',5'-cyclic-AMP phosphodiesterase 4C (Homo sapiens, UniProt Q08493). As to the kind of experiment: Inhibition of PDE4C.

T1 sequence (P27815 whole entry): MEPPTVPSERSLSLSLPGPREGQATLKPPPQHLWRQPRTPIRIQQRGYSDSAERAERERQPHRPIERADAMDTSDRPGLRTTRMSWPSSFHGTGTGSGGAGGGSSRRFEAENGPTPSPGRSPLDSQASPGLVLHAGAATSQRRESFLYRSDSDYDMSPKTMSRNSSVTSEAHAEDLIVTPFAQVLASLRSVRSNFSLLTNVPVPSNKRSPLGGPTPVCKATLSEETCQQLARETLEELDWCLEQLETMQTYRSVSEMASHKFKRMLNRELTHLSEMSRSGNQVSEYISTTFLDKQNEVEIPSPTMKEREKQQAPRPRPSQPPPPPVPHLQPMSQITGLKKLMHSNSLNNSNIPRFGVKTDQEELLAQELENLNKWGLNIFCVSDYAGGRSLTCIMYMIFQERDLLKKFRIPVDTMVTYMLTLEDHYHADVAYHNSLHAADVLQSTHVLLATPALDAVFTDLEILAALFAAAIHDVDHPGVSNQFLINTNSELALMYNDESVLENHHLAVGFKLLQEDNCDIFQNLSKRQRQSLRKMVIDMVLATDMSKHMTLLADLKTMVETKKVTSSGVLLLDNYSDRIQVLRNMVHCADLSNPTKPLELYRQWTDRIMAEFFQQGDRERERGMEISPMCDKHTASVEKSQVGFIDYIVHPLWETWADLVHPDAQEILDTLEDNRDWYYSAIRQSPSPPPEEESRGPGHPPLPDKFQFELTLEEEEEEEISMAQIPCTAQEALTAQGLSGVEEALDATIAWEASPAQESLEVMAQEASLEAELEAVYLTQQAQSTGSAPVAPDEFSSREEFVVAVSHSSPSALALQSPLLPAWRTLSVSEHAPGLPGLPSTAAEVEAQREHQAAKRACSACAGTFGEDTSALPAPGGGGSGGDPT
Chain of 3',5'-cyclic-AMP phosphodiesterase 4B (Q07343 whole entry): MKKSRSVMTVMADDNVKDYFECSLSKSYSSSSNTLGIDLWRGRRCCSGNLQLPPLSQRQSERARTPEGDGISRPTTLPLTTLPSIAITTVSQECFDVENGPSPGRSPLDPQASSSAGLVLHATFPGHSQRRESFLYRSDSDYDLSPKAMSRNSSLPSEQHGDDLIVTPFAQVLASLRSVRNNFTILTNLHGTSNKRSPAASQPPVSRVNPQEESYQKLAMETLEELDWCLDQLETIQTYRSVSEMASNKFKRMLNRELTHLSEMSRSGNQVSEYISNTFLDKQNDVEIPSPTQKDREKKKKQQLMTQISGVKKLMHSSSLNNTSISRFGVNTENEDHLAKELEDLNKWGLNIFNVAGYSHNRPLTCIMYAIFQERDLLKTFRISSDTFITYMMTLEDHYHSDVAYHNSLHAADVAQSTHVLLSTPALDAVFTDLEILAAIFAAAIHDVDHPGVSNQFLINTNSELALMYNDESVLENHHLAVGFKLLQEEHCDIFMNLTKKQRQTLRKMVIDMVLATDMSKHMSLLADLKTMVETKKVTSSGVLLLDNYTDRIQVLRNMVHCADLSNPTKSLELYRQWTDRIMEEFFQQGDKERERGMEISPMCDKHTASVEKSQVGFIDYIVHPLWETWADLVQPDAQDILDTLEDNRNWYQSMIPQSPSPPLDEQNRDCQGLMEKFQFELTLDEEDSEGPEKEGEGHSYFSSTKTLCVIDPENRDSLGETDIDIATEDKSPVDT
Chain of 3',5'-cyclic-AMP phosphodiesterase 4C (Q08493 whole entry): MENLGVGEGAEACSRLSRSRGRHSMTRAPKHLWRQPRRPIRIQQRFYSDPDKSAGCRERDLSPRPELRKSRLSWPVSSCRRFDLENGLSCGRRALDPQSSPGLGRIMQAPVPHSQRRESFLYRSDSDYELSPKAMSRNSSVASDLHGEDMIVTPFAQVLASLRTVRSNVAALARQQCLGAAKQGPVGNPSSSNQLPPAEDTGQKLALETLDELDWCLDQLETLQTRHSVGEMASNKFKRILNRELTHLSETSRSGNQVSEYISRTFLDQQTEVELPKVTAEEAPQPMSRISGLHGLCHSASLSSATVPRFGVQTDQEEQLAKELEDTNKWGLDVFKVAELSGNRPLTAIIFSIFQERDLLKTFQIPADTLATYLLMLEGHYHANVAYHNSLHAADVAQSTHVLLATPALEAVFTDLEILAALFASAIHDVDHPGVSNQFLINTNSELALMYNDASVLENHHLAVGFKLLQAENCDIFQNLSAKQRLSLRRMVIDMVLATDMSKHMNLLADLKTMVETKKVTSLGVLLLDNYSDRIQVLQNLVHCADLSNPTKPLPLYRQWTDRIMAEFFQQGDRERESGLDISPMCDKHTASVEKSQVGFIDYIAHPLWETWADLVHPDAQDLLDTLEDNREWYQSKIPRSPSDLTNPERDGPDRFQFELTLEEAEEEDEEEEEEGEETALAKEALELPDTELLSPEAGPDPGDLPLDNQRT

Consider `[O-][n+]1cccc(C[C@@H](c2ccc(OC(F)F)c(OC3CC3)c2)c2cnc(C(O)(C(F)(F)F)C(F)(F)F)s2)c1`, for which, in experiment [1], the negative-log Ki (pKi) (usually the Ki on a negative log10 scale, so that one unit is a factor of ten) was 9.37.

With `[O-][n+]1cccc(C[C@H](c2ccc(OC(F)F)c(OC3CC3)c2)c2cnc(C(O)(C(F)(F)F)C(F)(F)F)s2)c1`, the negative logarithm of the IC50 (pIC50) (as a rule, the IC50 on a negative log10 scale, so that one unit is a factor of ten) is 7.25 in experiment [2], 7.40 in experiment [3] and 6.87 in experiment [4].

The values above are taken from ChEMBL document CHEMBL1138159, “Enantiomer discrimination illustrated by the high resolution crystal structures of type 4 phosphodiesterase” (J Med Chem, 2006).
